The nature of data set [1]: Thermodynamic solubility (shake flask method). The format is physicochemical. Particulars: phosphate buffer, aqueous buffer, thermodynamic from solid; PBS pH 7.4, shake flask, room temperature; read-out: Experimental Water Solubility LogS (converted). How it is done: The samples were sonicated for 10 min and shaken overnight at 800 rpm (FB15013 TopMix, Fischer Scientific, Waltham, MA, USA) at room temperature. A first phase separation of supernatant and undissolved solid was performed by centrifugation at 5000 rpm for 20 min (Biofuge primo R). The supernatant was then transferred into Eppendorf tubes for a second centrifugation. An adequate dilution was made using the particle-free supernatant and the concentration quantified by LC-HRMS using a 4-point calibration curve (Agilent 1260 Infinity II).
PART A. Calibration curves of compounds for solubility
9e, 10a-e), 4-points calibration curves were made for each compound. Calibrations curves were obtained using four different concentrations of the corresponding compound (0.1 mg/mL, 0.01 mg/mL, 0.001 mg/mL and 0.0001 mg/mL). All samples were prepared in DMSO and measured in a LC-HRMS (Agilent 1260 Infinity II).
Figure S1. Calibration curves of all active compounds (solubility studies) (1, 2, 9a, 9e, 10a-e) […]

Data set [2] addresses T1, MMP-2 (Homo sapiens, UniProt P08253).
T1 construct: the catalytic domains of the corresponding MMP were incubated in triplicate; purchased Enzo Life Science International, Inc
In words: MMP inhibition assay (MMP Inhibitor Profiling Kit, thiopeptide substrate), MMP-2. The format is biochemical. Conditions: catalytic domain, 37 °C, pH 7.5. How it is done:
MMP activity measurements were performed using an MMP Inhibitor Profiling Kit purchased from Enzo Life Science International, Inc. (Farmingdale, NY, USA), and following the manufacturer’s protocol with slight modifications. Proteolytic activity was measured using a thiopeptide substrate (Ac-PLG-[2-mercapto-4-methylpentanoyl]-LG-OC2H5) where the MMP cleavage site peptide bond has been replaced by a thioester bond. Hydrolysis of this bond by MMPs produces a sulfhydryl group that reacts with DTNB to form 2-nitro-5-thiobenzoic acid, which was detected by its absorbance at 414 nm (microplate photometer 90 Thermo Scientific Multiscan FC).
Enzyme reactions were carried out at 37 °C in a 100 μL final volume of solutions, where the catalytic domains of the corresponding MMP were incubated in triplicate with at least seven concentrations of inhibitors. The assay buffer contained the following components: 50 mM HEPES, 10 mM CaCl2 95, 0.05% Brij-35, and 1 mM DTNB at pH 7.5. After addition of the substrate, the increase of absorbance was recorded in 1 min time intervals for 30 min. Data were plotted as OD versus time for each sample to obtain the reaction velocity (V) in OD per min. The percentage of residual activity for each compound was calculated using the following formula: % of remaining activity = (V in the presence of inhibitor/Vcontrol) × 100. An inhibitor, NNGH, was included as a prototypic control inhibitor. IC50 calculations in MMP-13 and MMP-2 for active compounds are shown in Supplementary Materials (Figure S9)
The concentration of the compound that provided 50% inhibition of enzymatic activity (IC50) was determined by using semi-logarithmic dose–response plots (Graph Pad Prism 5.0 for Windows, Graph Pad Software Inc., San Diego, CA, USA, 2007).

For another data set, the target named is T2, MMP-13 (Homo sapiens, UniProt P45452).
T2 construct: the catalytic domains of the corresponding MMP were incubated in triplicate; purchased Enzo Life Science International, Inc
The data set can be described thus: MMP inhibition assay (MMP Inhibitor Profiling Kit, thiopeptide substrate), MMP-13. Format: biochemical. Particulars: catalytic domain, 37 °C, pH 7.5. The method, then:
MMP activity measurements were performed using an MMP Inhibitor Profiling Kit purchased from Enzo Life Science International, Inc. (Farmingdale, NY, USA), and following the manufacturer’s protocol with slight modifications. […] Hydrolysis of this bond by MMPs produces a sulfhydryl group that reacts with DTNB to form 2-nitro-5-thiobenzoic acid, which was detected by its absorbance at 414 nm (microplate photometer 90 Thermo Scientific Multiscan FC).
The assay buffer contained the following components: 50 mM HEPES, 10 mM CaCl2 95, 0.05% Brij-35, and 1 mM DTNB at pH 7.5. After addition of the substrate, the increase of absorbance was recorded in 1 min time intervals for 30 min. Data were plotted as OD versus time for each sample to obtain the reaction velocity (V) in OD per min. The percentage of residual activity for each compound was calculated using the following formula: % of remaining activity = (V in the presence of inhibitor/Vcontrol) × 100. An inhibitor, NNGH, was included as a prototypic control inhibitor.

Another data set deals with MMP-13 catalytic domain (Homo sapiens, UniProt P45452). The data set can be described thus: WaterLOGSY NMR experiment. Particulars: 5 μM protein, 0.15 mM ligand, 25 °C.
In data set [3] the target is T3, recombinantly expressed catalytic domain of MMP-13 (Homo sapiens, UniProt P45452).
T3 construct: containing the catalytic site (amino acid residues −104 to 274); TEV cleavage site (C); 6xHis (C); made in house; host or cells: Escherichia coli BL21-DE3 pLys S
The data set can be described thus: Enzymatic activity of recombinantly expressed MMP-13 catalytic domain, dose response of BiPS. Format: biochemical. Conditions: recombinantly expressed catalytic domain of MMP-13, after refolding. The text has this:
To this end, a recombinantly expressed catalytic domain of MMP-13 was purified under denaturing conditions (Figure S6); the process lead to a very pure sample preparation.
(§1) Figure S5. PyMOL stick and cartoon representation of the bidentate interaction established by the hydroxamate and the catalytic Zinc ion in both MMP-13 (left) and MMP-2 (right). Hydrogen bonds are shown in dashed lines, the catalytic zinc ion is shown as grey sphere. For the sake of clarity, no hydrogens are shown.
(§2) Figure S6. SDS-PAGE analysis of the recombinantly expressed catalytic dom ain of MMP-13 purified by metal affinity chromatography. M corresponds to the molecular weight markers ( k D a ) . […]
(§3) Log(BiPS [M]) Log(BiPS [M])
(§4) Figure S7. Dose response curve used to determine IC50 of BiPS for A) recombinantly expressed catalytic domain of MMP-13, and B) commercially available MMP-13 active protein. […]

Data set [4] concerns the target commercially available MMP-13 active protein (Homo sapiens, UniProt P45452). The data set can be described thus: Enzymatic activity of commercial MMP-13, dose response of BiPS. Format: biochemical.
Text: as §1, §2, §3, §4

Data set [5] has as its target T1, MMP-2. Also noted: method as in PMID 30629065. Conditions: previous work; read-out: MMP-2 IC50; cited from earlier work.

In brackets after ≈: the same amount, converted by molar mass. Read-outs that look alike come from different tables or passages of the source.

T1 sequence (P08253 110-446 limits assumed): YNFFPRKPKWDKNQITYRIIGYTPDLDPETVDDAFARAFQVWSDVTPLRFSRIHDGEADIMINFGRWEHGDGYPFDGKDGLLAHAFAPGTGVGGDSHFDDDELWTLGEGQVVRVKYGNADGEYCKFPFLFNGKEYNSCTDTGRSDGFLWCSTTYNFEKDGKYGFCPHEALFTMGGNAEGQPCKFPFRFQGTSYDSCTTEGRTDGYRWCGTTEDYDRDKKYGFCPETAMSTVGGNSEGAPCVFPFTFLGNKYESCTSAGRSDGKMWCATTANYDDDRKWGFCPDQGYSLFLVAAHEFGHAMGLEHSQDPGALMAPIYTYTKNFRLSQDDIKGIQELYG

With `Cc1ccc2c(c1)C(=O)N(CCc1cn(-c3ccc(S(=O)(=O)N[C@H](Cc4ccccc4)C(=O)NO)cc3)nn1)C2=O` [Compound 10e, (R)-N-hydroxy-2-((4-(4-(2-(5-methyl-1,3-dioxoisoindolin-2-yl)ethyl)-1H-1,2,3-triazol-1-yl)phenyl)sulfonamido)-3-phenylpropanamide], the melting point is 143 to 145 °C. Also, in data set [1], the solubility is 8.32 µM (≈ 4.78 µg/mL). This compound had an IC50 at MMP-2 [2] of 2.9 ± 1.1 nM.
The compound `O=C(O)[C@H](Cc1ccccc1)NS(=O)(=O)c1ccc(-n2cc(CCn3nc4ccccc4n3)nn2)cc1` [Compound 9c, (S)-2-(4-(4-(2-(2H-benzo[d][1–3]triazol-2-yl)ethyl)-1H-1,2,3-triazol-1-yl)phenylsulfonamido)-3-phenylpropanoic acid] came in with a melting point of 227 to 228 °C. This compound also registered a half-inhibitory concentration (IC50) on MMP-13 of over 100 nM. The same compound returned an IC50 at MMP-2 [2] of over 100 nM.
With `O=C(NO)[C@@H](Cc1ccccc1)NS(=O)(=O)c1ccc(-c2ccccc2)cc1` [BiPS, (2R)-[(4-biphenylylsulfonyl)amino]-N-hydroxy-3-phenylpropionamide], the “Interaction with the MMP-13 catalytic domain (WaterLOGSY)” value on MMP-13 catalytic domain is on record as “positive signals”. The IC50 worked out at 1.44 nM in data set [3] and 2.06 nM in data set [4].
On to `O=C(NO)[C@@H](Cc1ccccc1)NS(=O)(=O)c1ccc(-n2cc(CCN3C(=O)c4ccccc4C3=O)nn2)cc1` [Compound 10a, (R)-2-((4-(4-(2-(1,3-dioxoisoindolin-2-yl)ethyl)-1H-1,2,3-triazol-1-yl)phenyl)sulfonamido)-N-hydroxy-3-phenylpropanamide], for which the melting point is 177 °C (dec.). Further, the solubility in data set [1] was 2.69 µM (≈ 1.51 µg/mL). This compound yielded a half-inhibitory concentration (IC50) at MMP-2 [2] of 3.1 ± 0.9 nM.
Turning to `O=C(O)[C@@H](Cc1ccccc1)NS(=O)(=O)c1ccc(-n2cc(CCn3nc4ccccc4n3)nn2)cc1` [Compound 9b, (R)-2-(4-(4-(2-(2H-benzo[d][1–3]triazol-2-yl)ethyl)-1H-1,2,3-triazol-1-yl)phenylsulfonamido)-3-phenylpropanoic acid], the melting point was 246 °C (dec.). The compound also had a 50% inhibitory concentration (IC50) on MMP-13 of over 100 nM. Further, at MMP-2 [2], the IC50 was over 100 nM.
Turning to `O=C(NO)C1(S(=O)(=O)c2ccc(-n3cc(CCn4nc5c(Br)c(Br)c(Br)c(Br)c5n4)nn3)cc2)CCOCC1` [Compound 2], the IC50 at MMP-2 [5] is 100 nM. Moreover, the solubility in data set [1] was 2.4 µM (≈ 1.95 µg/mL).
`O=C(NO)[C@@H](Cc1ccccc1)NS(=O)(=O)c1ccc(-n2cc(CCN3C(=O)c4cc(Br)c(Br)cc4C3=O)nn2)cc1` [Compound 10b, (R)-2-((4-(4-(2-(5,6-dibromo-1,3-dioxoisoindolin-2-yl)ethyl)-1H-1,2,3-triazol-1-yl)phenyl)sulfonamido)-N-hydroxy-3-phenylpropanamide] returned a melting point of 187 to 189 °C. In addition, in data set [1], the solubility was 3.63 µM (≈ 2.61 µg/mL). Moreover, at MMP-13, it took 46 ± 21 nM to reach half-maximal inhibition (IC50). The same compound gave an IC50 on MMP-2 [2] of 15 ± 5 nM.
Take `O=C(NO)[C@@H](Cc1ccccc1)NS(=O)(=O)c1ccc(-n2cc(CCN3C(=O)c4ccc(Br)cc4C3=O)nn2)cc1` [Compound 10d, (R)-2-((4-(4-(2-(5-bromo-1,3-dioxoisoindolin-2-yl)ethyl)-1H-1,2,3-triazol-1-yl)phenyl)sulfonamido)-N-hydroxy-3-phenylpropanamide]: the melting point was 104 °C (dec.). In addition, in data set [1], the solubility is 2.29 µM (≈ 1.46 µg/mL). At MMP-2 [2], it took 14 ± 7 nM to reach half-maximal inhibition (IC50).
On to `O=C(NO)C1(S(=O)(=O)c2ccc(-n3cc(CCn4nc5ccccc5n4)nn3)cc2)CCOCC1` [Compound 9e, 4-((4-(4-(2-(2H-benzo[d][1–3]triazol-2-yl)ethyl)-1H-1,2,3-triazol-1-yl)phenyl)sulfonyl)-N-hydroxytetrahydro-2H-pyran-4-carboxamide], for which, in data set [1], the solubility was 33.9 µM (≈ 16.9 µg/mL). This compound returned a half-maximal inhibitory concentration (IC50) on MMP-2 [2] of 10.3 ± 2.8 nM.
`O=C(NO)[C@@H](Cc1ccccc1)NS(=O)(=O)c1ccc(-n2cc(CCN3C(=O)c4c(Br)c(Br)c(Br)c(Br)c4C3=O)nn2)cc1` [Compound 10c, (R)-N-hydroxy-3-phenyl-2-((4-(4-(2-(4,5,6,7-tetrabromo-1,3-dioxoisoindolin-2-yl)ethyl)-1H-1,2,3-triazol-1-yl)phenyl)sulfonamido)propenamide] came in with a melting point of 195 to 197 °C. Besides, the solubility in data set [1] was 0.141 µM (≈ 0.124 µg/mL). Besides, at MMP-13, the 50% inhibitory concentration (IC50) is 61 ± 18 nM. The compound further displayed an IC50 on MMP-2 [2] of 17 ± 4 nM.
`O=C(O)[C@@H](Cc1ccccc1)NS(=O)(=O)c1ccc(-n2cc(CCn3nc4c(Br)c(Br)c(Br)c(Br)c4n3)nn2)cc1` [Compound 9d, (R)-2-(4-(4-(2-(perbromo-2H-benzo[d][1–3]triazol-2-yl)ethyl)-1H-1,2,3-triazol-1-yl)phenylsulfonamido)-3-phenylpropanoic acid] registered a melting point of 127 to 130 °C. Also, the half-inhibitory concentration (IC50) against MMP-13 is over 100 nM. Moreover, the IC50 on MMP-2 [2] is over 100 nM.

Usually solubility stands for how much of the substance goes into solution per volume. The term melting point denotes the temperature of the solid-liquid transition. A word on the IC50: it is the concentration needed to halve the response being measured.

Values taken from paper PMC8467962, “Design and Synthesis of Water-Soluble and Potent MMP-13 Inhibitors with Activity in Human Osteosarcoma Cells” (International Journal of Molecular Sciences, 2021).
